Experimental findings from patent US7834011B2, “Heterocyclylalkyl derivatives as novel inhibitors of histone deacetylase” (Janssen Pharmaceutica N.V., priority 2006, dated 2010) are described below.

In data set [1] the test system is A2780 ovarian carcinoma cells. Put plainly: Antiproliferative activity on A2780 cells (MTT). It is filed as cell-based. The conditions noted are these: Homo sapiens, 96 h, four days of incubation, read-out: Cellular activity pIC50 C.2 (converted). How it is done:
Cellular activity of the compounds of formula (I) was determined on A2780 tumour cells using a colorimetric assay for cell toxicity or survival (Mosmann Tim, Journal of Immunological Methods 65: 55-63, 1983)(see example C.2).
All compounds tested were dissolved in DMSO and further dilutions were made in culture medium. Final DMSO concentrations never exceeded 0.1% (v/v) in cell proliferation assays. Controls contained A2780 cells and DMSO without compound and blanks contained DMSO but no cells. MTT was dissolved at 5 mg/ml in PBS. A glycine buffer comprised of 0.1 M glycine and 0.1 M NaCl buffered to pH 10.5 with NaOH (1 N) was prepared (all reagents were from Merck).
The human A2780 ovarian carcinoma cells (a kind gift from Dr. T. C. Hamilton [Fox Chase Cancer Centre, Pennsylvania, USA]) were cultured in RPMI 1640 medium supplemented with 2 mM L-glutamine, 50 μg/ml gentamicin and 10% fetal calf serum. Cells were routinely kept as monolayer cultures at 37° C. in a humidified 5% CO2 atmosphere. Cells were passaged once a week using a trypsin/EDTA solution at a split ratio of 1:40. All media and supplements were obtained from Life Technologies. Cells were free of mycoplasma contamination as determined using the Gen-Probe Mycoplasma Tissue Culture kit (supplier: BioMérieux).
Cells were seeded in NUNC™ 96-well culture plates (Supplier: Life Technologies) and allowed to adhere to the plastic overnight. Densities used for plating were 1500 cells per well in a total volume of 200 μl medium. After cell adhesion to the plates, medium was changed and drugs and/or solvents were added to a final volume of 200 μl. Following four days of incubation, medium was replaced by 200 μl fresh medium and cell density and viability was assessed using an MTT-based assay. To each well, 25 μl MTT solution was added and the cells were further incubated for 2 hours at 37° C. The medium was then carefully aspirated and the blue MTT-formazan product was solubilized by addition of 25 μl glycine buffer followed by 100 μl of DMSO. […] Within an experiment, the results for each experimental condition are the mean of 3 replicate wells. For initial screening purposes, compounds were tested at a single fixed concentration of 10^−6 M. For active compounds, the experiments were repeated to establish full concentration-response curves. For each experiment, controls (containing no drug) and a blank incubation (containing no cells or drugs) were run in parallel. The blank value was subtracted from all control and sample values. For each sample, the mean value for cell growth (in absorbance units) was expressed as a percentage of the mean value for cell growth of the control. […] Herein the effects of test compounds are expressed as pIC50 (the negative log value of the IC50-value)(see Table F-2).

The target of data set [2] is histone deacetylase (HeLa nuclear extracts). Put plainly: In vitro assay for inhibition of histone deacetylase with fluorescent-labelled substrate (Fluor de Lys). It is filed as biochemical. The text has this:
The in vitro assay for inhibition of histone deacetylase (see example C.1) measures the inhibition of HDAC enzymatic activity obtained with the compounds of formula (I).
The HDAC Fluorescent Activity Assay/Drug Discovery Kit of Biomol (cat. No: AK-500-0001) was used. The HDAC Fluorescent Activity Assay is based on the Fluor de Lys (Fluorogenic Histone deAcetylase Lysyl) substrate and developer combination. The Fluor de Lys substrate, comprises an acetylated lysine side chain. Deacetylation of the substrate sensitizes the substrate so that, in the second step, treatment with the Fluor de Lys developer produces a fluorophore.
HeLa nuclear extracts (supplier: Biomol) were incubated at 60 μg/ml with 75 μM of substrate. The Fluor de Lys substrate was added in a buffer containing 25 mM Tris, 137 mM NaCl, 2.7 mM KCl and 1 mM MgCl2.6H2O at pH 7.4. After 30 min, 1 volume of the developer was added. The fluorophore was excited with 355 nm light and the emitted light (450 nm) was be detected on a fluorometric plate reader.
For each experiment, controls (containing HeLa nuclear extract and buffer), a blank incubation (containing buffer but no HeLa nuclear extract) and samples (containing compound dissolved in DMSO and further diluted in buffer and HeLa nuclear extract) were run in parallel. In first instance, compounds were tested at a concentration of 10^−5M. […] All sample were tested 4 times. In each test the blank value was subtracted from both the control and the sample values. The control sample represented 100% of substrate deactylation. For each sample the fluorescence was expressed as a percentage of the mean value of the controls. […] Herein the effects of test compounds are expressed as pIC50 (the negative log value of the IC50-value) (see Table F-2).

Data set [3] can be described thus: Solubility at pH 2.3 (chemiluminescent nitrogen detector). It is filed as physicochemical. The conditions noted are these: pH 2.3, aqueous buffer; read-out: Solubility C.3.c. pH = 2.3. From the text:
In a third method the solubility of a compound at different pH's can be measured with the use of a Chemiluminescent Nitrogen Detector (see example C.3.c).
The solubility of a compound, at pH 2.3, can also be measured with the use of a chemiluminescent nitrogen detector (see Table F-2).

In brackets after ≈: the same amount, converted by molar mass. Bounds are passed on as bounds.

One may read the melting point as the temperature of the solid-liquid transition. With `Cn1nc(CNCC2CN(c3ncc(C(=O)NO)cn3)CCO2)c2ccccc21` (stereo not shown) [Compound 4], the melting point was found to be 193 °C. The IC50 in data set [1] is 200 nM. For the same molecule, in data set [2], the “Enzymatic activity pIC50 C.1” value amounted to 7.8.
Regarding `Cn1nc(CNCC2CN(c3ncc(C(=O)Nc4ccccc4N)cn3)CCO2)c2ccccc21` (stereo not shown) [Compound 5], the melting point was 152 °C.
Turning to `Cn1nc(CN2CCN(c3ccc(C(=O)Nc4ccccc4N)cn3)CC2)c2ccccc21` [Compound 6], the melting point was determined as 219 °C.
As for `Cn1nnc2cc(COCC3CCN(c4ncc(C(=O)NO)cn4)CC3)ccc21` [Compound 7], the melting point was 197 °C. In addition, the IC50 in data set [1] was 200 nM. The “Enzymatic activity pIC50 C.1” value in data set [2] was found to be 7.8.
Broadly, the solubility is how much of the substance goes into solution per volume. As to `O=C(NO)c1cnc(N2CCC(CNCc3nc4ccccc4s3)CC2)nc1` [Compound 8], the melting point turned out to be 208 °C. In addition, the IC50 in data set [1] is 100 nM. Further, in data set [3], the solubility is 2500 µg/mL (≈ 6.27 mM). Besides, the “Enzymatic activity pIC50 C.1” value in data set [2] came out at 8.2.
`CCN(Cc1ccc2c(c1)nnn2C)CC1CCN(c2ncc(C(=O)NO)cn2)CC1` [Compound 9] gave a melting point of 168 °C. Further, the IC50 in data set [1] was 200 nM. Also, in data set [3], the solubility came out at 2400 µg/mL (≈ 5.65 mM). Further, in data set [2], the “Enzymatic activity pIC50 C.1” value is listed as 8.3.
`CCN(Cc1ccc2nnn(C)c2c1)CC1CCN(c2ncc(C(=O)NO)cn2)CC1` [Compound 10] registered a melting point of 110 °C. For the same molecule, the IC50 in data set [1] was 50.1 nM. Moreover, in data set [3], the solubility turned out to be 2700 µg/mL (≈ 6.36 mM). Moreover, the “Enzymatic activity pIC50 C.1” value in data set [2] was found to be 8.7.
Turning to `Cn1nnc2cc(CN(CC3CCN(c4ncc(C(=O)NO)cn4)CC3)C(=O)NO)ccc21` [Compound 11], the melting point turned out to be 130 °C. For the same molecule, in data set [1], the IC50 was 794 nM. For the same molecule, the “Enzymatic activity pIC50 C.1” value in data set [2] was found to be 8.5.
In turn, `Cn1nnc2ccc(CN(CC3CCN(c4ncc(C(=O)NO)cn4)CC3)S(C)(=O)=O)cc21` [Compound 12] displayed a melting point of 260 °C. Besides, the IC50 in data set [1] is 1260 nM. Besides, the solubility in data set [3] is under 10 µg/mL. Further, in data set [2], the “Enzymatic activity pIC50 C.1” value stood at 7.8.
`CCC(=O)N(Cc1nn(C)c2ccccc12)CC1CCN(c2ncc(C(=O)NO)cn2)CC1` [Compound 13]: the melting point came to 199 °C. The IC50 in data set [1] is 251 nM. The solubility in data set [3] was under 10 µg/mL. Further, the “Enzymatic activity pIC50 C.1” value in data set [2] amounted to 7.6.
`Cn1nc(CN2CCN(c3ccc(C(=O)NO)cn3)CC2)c2ccccc21` [Compound 14]: in data set [1], the IC50 was 158 nM. Also, the “Enzymatic activity pIC50 C.1” value in data set [2] stood at 7.5.
Taken in the same sequence, the figures for `Cn1cc(CNCC2CCN(c3ncc(C(=O)NO)cn3)CC2)c2cccnc21` [Compound 15] were 39.8 nM and 8.2.
In the same order, the values of `Cn1nc(CNCC2CCN(c3ccc(C(=O)NO)cn3)CC2)c2ccccc21` [Compound 16] are 100 nM and 7.5.
For the molecule `CCCn1nc(CNCC2CCN(c3ncc(C(=O)NO)cn3)CC2)c2ccccc21` [Compound 17], the IC50 in data set [1] was 31.6 nM. Also, in data set [3], the solubility came out at 3800 µg/mL (≈ 8.97 mM). For the same molecule, the “Enzymatic activity pIC50 C.1” value in data set [2] worked out at 9.0.
On to `CC(C)n1nnc2cc(CNCC3CCN(c4ncc(C(=O)NO)cn4)CC3)ccc21` [Compound 18], for which the IC50 in data set [1] was 158 nM. The “Enzymatic activity pIC50 C.1” value in data set [2] stood at 7.6.
With `Cn1nc2ccccc2c1CNCC1CCN(c2ncc(C(=O)NO)cn2)CC1` [Compound 19], in data set [1], the IC50 is 1580 nM. Also, the solubility in data set [3] was 2500 µg/mL (≈ 6.32 mM). Besides, in data set [2], the “Enzymatic activity pIC50 C.1” value is 8.1.
In the same order, the values of `Cn1nnc2cc(CNCC3CCN(c4ncc(C(=O)NO)cn4)CC3)ccc21` [Compound 20] are 158 nM, 2500 µg/mL (≈ 6.31 mM) and 7.8.
Taken in the same sequence, the figures for `CC(=O)N(Cc1nc2ccccc2n1C)CC1CCN(c2ncc(C(=O)NO)cn2)CC1` [Compound 21] were 794 nM, 1900 µg/mL (≈ 4.34 mM) and 7.5.
In the case of `Cc1nc2ccc(CNCC3CCN(c4ncc(C(=O)NO)cn4)CC3)cc2[nH]1` [Compound 23], in data set [1], the IC50 is 1000 nM. Also, the “Enzymatic activity pIC50 C.1” value in data set [2] was determined as 8.0.
`CCN(Cc1ccc2c(c1)nnn2C(C)C)CC1CCN(c2ncc(C(=O)NO)cn2)CC1` [Compound 24]: the IC50 in data set [1] is 50.1 nM. In addition, the solubility in data set [3] came to 4600 µg/mL (≈ 10.2 mM). In addition, the “Enzymatic activity pIC50 C.1” value in data set [2] was 8.4.
Consider `Cn1nnc2cc(CN(CC#N)CC3CCN(c4ncc(C(=O)NO)cn4)CC3)ccc21` [Compound 25], for which the IC50 in data set [1] is 126 nM. The “Enzymatic activity pIC50 C.1” value in data set [2] worked out at 7.7.
In the case of `CC(=O)N(Cc1ccc2c(c1)nnn2C)CC1CCN(c2ncc(C(=O)NO)cn2)CC1` [Compound 26], in data set [1], the IC50 is 1580 nM. Moreover, in data set [2], the “Enzymatic activity pIC50 C.1” value was 7.4.
As to `CCC(=O)N(Cc1ccc2nnn(C)c2c1)CC1CCN(c2ncc(C(=O)NO)cn2)CC1` [Compound 27], the IC50 in data set [1] was 2000 nM. Further, the solubility in data set [3] is under 10 µg/mL. Besides, the “Enzymatic activity pIC50 C.1” value in data set [2] was determined as 6.9.
On to `CCCn1nc(CN(CC2CCN(c3ncc(C(=O)NO)cn3)CC2)C(=O)CC)c2ccccc21` [Compound 28], for which the IC50 in data set [1] was 251 nM. Moreover, the solubility in data set [3] was determined as 10 µg/mL (≈ 0.0209 mM). For the same molecule, in data set [2], the “Enzymatic activity pIC50 C.1” value is given as 7.4.
Taken in the same sequence, the figures for `CC(=O)N(Cc1ccc2c(c1)nnn2C(C)C)CC1CCN(c2ncc(C(=O)NO)cn2)CC1` [Compound 29] were 794 nM, 400 µg/mL (≈ 0.857 mM) and 7.2.
In the case of `CCCn1nc(CN2CCN(c3ccc(C(=O)Nc4cc(-c5cccs5)ccc4N)cn3)CC2)c2ccccc21` [Compound 31], the melting point is 138 °C.
